The text below walks through data of ChEMBL document CHEMBL4229400, “Covalent inhibitors of nicotinamide N-methyltransferase (NNMT) provide evidence for target engagement challenges in situ” (Bioorg Med Chem Lett, 2018).

SMILES strings stand for the structures. Changes are numbered by the printed parent chain. The source made the active and inactive calls. No cut-off for these calls is given here.

In assay [1] the target is T1, Nicotinamide N-methyltransferase (Homo sapiens) (UniProt P40261).
T1 sequence (whole entry): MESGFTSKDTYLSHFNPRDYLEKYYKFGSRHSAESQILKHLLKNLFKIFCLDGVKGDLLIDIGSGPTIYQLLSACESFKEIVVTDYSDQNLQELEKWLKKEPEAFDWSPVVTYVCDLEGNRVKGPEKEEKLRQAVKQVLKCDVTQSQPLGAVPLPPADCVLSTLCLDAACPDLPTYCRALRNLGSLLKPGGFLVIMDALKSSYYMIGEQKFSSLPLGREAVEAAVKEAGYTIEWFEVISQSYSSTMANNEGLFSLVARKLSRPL
The assay is described as follows: Inhibition of SAH-rhodamine binding to NNMT in human 786-O cell soluble proteomic lysate assessed as ratio of observed rate constant to test compound concentration preincubated for 10 to 40 mins followed by SAH-rhodamine addition measured after 5 mins by Gel-based ABPP analysis.

For assay [2], the target named is T2, Heme oxygenase 2 (Homo sapiens) (UniProt P30519).
T2 sequence (whole entry): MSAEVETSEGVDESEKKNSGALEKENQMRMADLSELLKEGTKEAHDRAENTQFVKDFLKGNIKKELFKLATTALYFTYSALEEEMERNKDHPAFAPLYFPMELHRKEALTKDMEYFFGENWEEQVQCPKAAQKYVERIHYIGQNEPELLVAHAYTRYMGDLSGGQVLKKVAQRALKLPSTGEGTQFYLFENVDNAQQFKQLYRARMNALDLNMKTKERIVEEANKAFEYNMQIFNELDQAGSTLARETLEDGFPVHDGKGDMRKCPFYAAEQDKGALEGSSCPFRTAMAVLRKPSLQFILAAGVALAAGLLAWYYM
Put plainly: Binding affinity to HMOX2 cysteine residue in human 786-O cell lysate at 5 uM incubated for 1 hr followed by cell lysis by IA-alkyne probe based isoTOP-ABPP analysis.

The target in assay [3] is T1, Nicotinamide N-methyltransferase (Homo sapiens). The assay is described as follows: Inhibition of SAH-rhodamine binding to NNMT in human 786-O cell soluble proteomic lysate preincubated for 1 hr followed by SAH-rhodamine addition measured after 5 mins by Gel-based ABPP analysis.
The target of assay [4] is T3, Nicotinamide N-methyltransferase (Homo sapiens, UniProt P40261).
T3 sequence (P40261 whole entry): T1 sequence (whole entry)
Put plainly: Inhibition of NNMT in human 786-O cell lysate using d4-nicotinamide as substrate pretreated for 1 hr at 3 mins post 80 uM SAM addition followed by substrate addition measured after 15 to 30 mins by LC-MS analysis.

Assay [5] deals with T4, Glutathione S-transferase omega-1 (Homo sapiens) (UniProt P78417).
T4 sequence (whole entry): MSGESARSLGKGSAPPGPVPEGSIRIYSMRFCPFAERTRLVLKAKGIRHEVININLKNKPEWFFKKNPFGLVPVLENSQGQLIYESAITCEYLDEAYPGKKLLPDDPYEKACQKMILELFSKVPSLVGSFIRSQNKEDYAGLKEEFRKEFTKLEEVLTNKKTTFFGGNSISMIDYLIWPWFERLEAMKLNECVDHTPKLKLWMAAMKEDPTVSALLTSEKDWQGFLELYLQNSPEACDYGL
Put plainly: Binding affinity to GSTO1 C32 residue in human 786-O cell lysate at 5 uM incubated for 1 hr followed by cell lysis by IA-alkyne probe based isoTOP-ABPP analysis.

Assay [6] deals with T5, Thioredoxin domain-containing protein 17 (Homo sapiens) (UniProt Q9BRA2).
T5 sequence (whole entry): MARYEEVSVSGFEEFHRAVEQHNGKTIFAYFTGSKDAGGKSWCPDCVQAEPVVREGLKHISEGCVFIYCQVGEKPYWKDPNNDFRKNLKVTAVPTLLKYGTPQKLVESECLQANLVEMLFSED
The assay is described as follows: Binding affinity to TXNDC17 cysteine residue in human 786-O cell soluble proteomic lysate at 5 uM incubated for 1 hr followed by cell lysis by IA-alkyne probe based isoTOP-ABPP analysis.

The target in assay [7] is T3, Nicotinamide N-methyltransferase. Put plainly: Inhibition of NNMT in human 786-O cell lysate using d4-nicotinamide as substrate pretreated for 1 hr at 3 mins post 20 uM SAM addition followed by substrate addition measured after 15 to 30 mins by LC-MS analysis.
The target is the same in assay [8]. The assay is described as follows: Inhibition of NNMT in human 786-O cell lysate using d4-nicotinamide as substrate pretreated for 1 hr at 3 mins post 10 uM SAM addition followed by substrate addition measured after 15 to 30 mins by LC-MS analysis.
Assay [9] has as its target T5, Thioredoxin domain-containing protein 17 (Homo sapiens). The assay is described as follows: Binding affinity to TXNDC17 cysteine residue in human 786-O cell lysate at 5 uM incubated for 1 hr followed by cell lysis by IA-alkyne probe based isoTOP-ABPP analysis.
Assay [10] has as its system T6, Nicotinamide N-methyltransferase (Homo sapiens), P40261 [C165A].
T6 sequence (whole entry): T1 sequence (whole entry) with C165A
Put plainly: Inhibition of NNMT C165A mutant in human 786-O cell lysate using d4-nicotinamide as substrate preincubated for 1 hr followed by substrate and SAM addition measured after 15 to 30 mins by LC-MS analysis.

Assay [11] deals with T1, Nicotinamide N-methyltransferase (Homo sapiens). Put plainly: Binding affinity to NNMT C165 residue in human 786-O cell soluble proteomic lysate at 1 to 5 uM incubated for 1 hr followed by cell lysis by IA-alkyne probe based isoTOP-ABPP analysis.
For assay [12] the target is unchanged. The assay is described as follows: Binding affinity to NNMT C165 residue in human 786-O cell lysate at 5 uM incubated for 4 hrs followed by cell lysis by IA-alkyne probe based isoTOP-ABPP analysis.
The target is the same in assay [13]. Put plainly: Binding affinity to NNMT C165 residue in human 786-O cell soluble proteomic lysate at 5 uM incubated for 1 hr followed by cell lysis by IA-alkyne probe based isoTOP-ABPP analysis relative to control.

As for `CC(C)CCN(C(=O)CCl)c1cc(C(=O)NCc2cccc([N+](=O)[O-])c2)cc(C(F)(F)F)c1`, the Ratio in assay [1] came out at 285 M⁻¹ s⁻¹. Besides, the result in assay [2], in assay [5], in assay [6], in assay [9] and in assay [11] was Active. For the same molecule, the inhibition entry in assay [3] was “Dose-dependent effect”. Also, the IC50 came to 39 µM in [4], 6.2 µM in assay [7] and 4 µM in assay [8]. In assay [10], the inhibition entry is “inactive”. The result in assay [12] was inactive.
On to `O=C(Nc1cccnc1Cl)c1cc(N(CCCc2ccccc2)C(=O)CCl)cc(C(F)(F)F)c1`, for which, in assay [13], the outcome was inactive.

A word on the IC50: it is the concentration needed to halve the response being measured.
